The record followed here is US20030220517A1, “Method for producing ketocarboxylic acid derivatives” (priority 2000, published 2003).

For orientation: chromatographic logP means a lipophilicity value derived from retention on a column. A word on the melting point: it is the temperature of the solid-liquid transition.

The structures appear in SMILES notation.

Data set [1] is described as follows: log P determination by HPLC on reversed-phase column (EEC Directive 79/831 Annex V.A8). The class given is physicochemical. As to conditions: reversed-phase C18 HPLC column, reversed-phase column (C 18), 43° C., acidic range pH 2.3, 0.1% aqueous phosphoric acid/acetonitrile gradient. The procedure: The log P values given in the use examples above are determined in accordance with EEC Directive 79/831 Annex V.A8 by HPLC (High Performance Liquid Chromatography) on a reversed-phase column (C 18). Temperature: 43° C. The determination is carried out in the acidic range at pH 2.3 using the mobile phases 0.1% aqueous phosphoric acid and acetonitrile; linear gradient from 10% acetonitrile to 90% acetonitrile. Calibration is carried out using unbranched alkan-2-ones (with 3 to 16 carbon atoms) with known logP values (determination of the logP values by the retention times using linear interpolation between two successive alkanones).

In turn, `O=C1CCC(c2ccc(-c3ccc(OC(F)(F)F)cc3)cc2)N1C(CO)c1ccccc1` (centres unmarked) [VII-1, 1-[2-hydroxy-1-phenylethyl]-5-[4′-(trifluoromethoxy)-1,1′-biphenyl-4-yl]-2-pyrrolidinone] showed a chromatographic logP in data set [1] of 3.8.

In data set [1], `CC(C)(C)OC(=O)NC(CCC(=O)c1c(F)cccc1F)c1ccc(-c2ccc(OC(F)(F)F)cc2)cc1` (centres unmarked) [XIII-1, tert-butyl 4-(2,6-difluorophenyl)-4-oxo-1-[4′-(trifluoromethoxy)-1,1′-biphenyl-4-yl]butylcarbamate] displayed a chromatographic logP of 5.18.

`Fc1cccc(F)c1C1=N[C@@H](c2ccc(-c3ccc(OC(F)(F)F)cc3)cc2)CC1` [Example V-1, (2R)-5-(2,6-difluorophenyl)-2-[4′-(trifluoromethoxy)-1,1′-biphenyl-4-yl]-3,4-dihydro-2H-pyrrole] yielded a chromatographic logP in data set [1] of 4.13.

The molecule `C=C(c1ccccc1)N1C(=O)CCC1c1ccc(-c2ccc(OC(F)(F)F)cc2)cc1` (centres unmarked) [IX-1, 1-(1-phenylvinyl)-5-[4′-(trifluoromethoxy)-1,1′-biphenyl-4-yl]-2-pyrrolidinone] registered a chromatographic logP in data set [1] of 4.35.

In the case of `O=C1CCC(c2ccc(-c3ccc(OC(F)(F)F)cc3)cc2)N1C(CCl)c1ccccc1` (centres unmarked) [VIII-1, 1-[2-chloro-1-phenylethyl]-5-[4′-(trifluoromethoxy)-1,1′-biphenyl-4-yl]-2-pyrrolidinone], the chromatographic logP in data set [1] was determined as 4.78.

Consider `O=C(O)CCC(=O)c1ccc(-c2ccc3c(c2)OC(F)(F)C(F)(F)O3)cc1` [Example 5, 4-oxo-4-(3′,4′-tetrafluoroethylenedioxo-biphenyl-4-yl)butyric acid], for which the melting point lay in the range of 165 to 168 °C.

As for `O=C1CCC(c2ccc(-c3ccc(OC(F)(F)F)cc3)cc2)N1` (centres unmarked) [Example X-1, 5-[4′-(trifluoromethoxy)-1,1′-biphenyl-4-yl]-2-pyrrolidinone], in data set [1], the chromatographic logP was found to be 2.95.

As to `CC(C)(C)OC(=O)N1C(=O)CCC1c1ccc(-c2ccc(OC(F)(F)F)cc2)cc1` (centres unmarked) [XI-1, tert-butyl 2-oxo-5-[4′-(trifluoromethoxy)-1,1′-biphenyl-4-yl]-1-pyrrolidinecarboxylate], the chromatographic logP in data set [1] turned out to be 4.32.
